Experiments:
[1] = molecular target: Delta-type opioid receptor (Homo sapiens, UniProt P41143)
D(3) dopamine receptor = D(3) dopamine receptor (Homo sapiens, UniProt P35462)
[2] = molecular target: Gamma-aminobutyric acid receptor subunit alpha-1 (Rattus norvegicus, UniProt P62813)
[3] = molecular target: T1, Neuropeptide Y receptor type 1 (Homo sapiens, UniProt P25929)
T1 sequence (P25929 whole entry): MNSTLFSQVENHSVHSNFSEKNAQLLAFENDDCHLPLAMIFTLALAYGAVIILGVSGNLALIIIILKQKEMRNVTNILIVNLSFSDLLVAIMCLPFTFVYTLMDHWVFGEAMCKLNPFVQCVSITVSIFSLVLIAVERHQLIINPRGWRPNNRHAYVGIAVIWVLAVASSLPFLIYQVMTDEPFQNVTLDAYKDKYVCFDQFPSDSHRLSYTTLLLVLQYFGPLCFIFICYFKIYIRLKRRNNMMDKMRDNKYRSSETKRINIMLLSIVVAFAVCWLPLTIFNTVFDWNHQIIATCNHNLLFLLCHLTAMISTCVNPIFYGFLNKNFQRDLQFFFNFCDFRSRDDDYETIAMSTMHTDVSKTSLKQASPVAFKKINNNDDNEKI

[4] = molecular target: T2, Alpha-2C adrenergic receptor (Homo sapiens, UniProt P18825); assay type: functional
T2 sequence (P18825 whole entry): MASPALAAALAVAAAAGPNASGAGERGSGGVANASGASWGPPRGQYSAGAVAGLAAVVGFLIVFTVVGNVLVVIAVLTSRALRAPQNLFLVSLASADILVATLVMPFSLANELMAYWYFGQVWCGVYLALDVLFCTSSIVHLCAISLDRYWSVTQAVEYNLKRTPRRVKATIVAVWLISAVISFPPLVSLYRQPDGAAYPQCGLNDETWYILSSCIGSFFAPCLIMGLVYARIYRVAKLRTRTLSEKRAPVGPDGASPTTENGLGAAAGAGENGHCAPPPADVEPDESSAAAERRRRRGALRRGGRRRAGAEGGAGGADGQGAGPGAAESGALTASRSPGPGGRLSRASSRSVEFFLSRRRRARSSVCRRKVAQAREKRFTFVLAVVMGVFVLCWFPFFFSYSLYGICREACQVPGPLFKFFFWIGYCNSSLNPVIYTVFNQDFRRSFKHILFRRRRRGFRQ

[5] = molecular target: T3, Alpha-1A adrenergic receptor (Homo sapiens, UniProt P35348); assay type: functional, cell-based
T3 sequence (P35348 whole entry): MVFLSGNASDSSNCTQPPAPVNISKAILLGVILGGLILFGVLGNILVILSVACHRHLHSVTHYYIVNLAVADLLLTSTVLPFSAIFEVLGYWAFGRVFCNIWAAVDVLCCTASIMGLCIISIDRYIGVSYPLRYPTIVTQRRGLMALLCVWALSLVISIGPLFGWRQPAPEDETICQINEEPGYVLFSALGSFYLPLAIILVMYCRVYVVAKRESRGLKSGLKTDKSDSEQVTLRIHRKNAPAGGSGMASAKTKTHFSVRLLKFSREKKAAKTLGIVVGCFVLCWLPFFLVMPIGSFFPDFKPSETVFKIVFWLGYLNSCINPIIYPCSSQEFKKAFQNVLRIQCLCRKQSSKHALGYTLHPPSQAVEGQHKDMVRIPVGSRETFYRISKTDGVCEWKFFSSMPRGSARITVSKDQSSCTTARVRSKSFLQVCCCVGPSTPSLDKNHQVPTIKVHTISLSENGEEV

Mu-type opioid receptor = Mu-type opioid receptor (Homo sapiens, UniProt P35372)
Sequence of Mu-type opioid receptor (P35372 whole entry): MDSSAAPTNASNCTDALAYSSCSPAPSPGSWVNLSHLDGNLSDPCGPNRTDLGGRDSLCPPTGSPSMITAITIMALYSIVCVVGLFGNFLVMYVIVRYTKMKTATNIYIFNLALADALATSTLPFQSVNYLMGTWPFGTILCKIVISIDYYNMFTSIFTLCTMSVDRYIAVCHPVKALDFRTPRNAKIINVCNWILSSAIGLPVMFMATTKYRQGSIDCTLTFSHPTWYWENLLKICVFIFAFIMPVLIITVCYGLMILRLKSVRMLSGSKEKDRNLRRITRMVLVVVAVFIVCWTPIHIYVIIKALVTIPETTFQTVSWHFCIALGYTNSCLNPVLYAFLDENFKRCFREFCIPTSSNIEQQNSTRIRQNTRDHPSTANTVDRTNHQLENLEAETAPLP

[6] = molecular target: T4, Amine oxidase [flavin-containing] A (Homo sapiens, UniProt P21397); assay type: functional
T4 sequence (P21397 whole entry): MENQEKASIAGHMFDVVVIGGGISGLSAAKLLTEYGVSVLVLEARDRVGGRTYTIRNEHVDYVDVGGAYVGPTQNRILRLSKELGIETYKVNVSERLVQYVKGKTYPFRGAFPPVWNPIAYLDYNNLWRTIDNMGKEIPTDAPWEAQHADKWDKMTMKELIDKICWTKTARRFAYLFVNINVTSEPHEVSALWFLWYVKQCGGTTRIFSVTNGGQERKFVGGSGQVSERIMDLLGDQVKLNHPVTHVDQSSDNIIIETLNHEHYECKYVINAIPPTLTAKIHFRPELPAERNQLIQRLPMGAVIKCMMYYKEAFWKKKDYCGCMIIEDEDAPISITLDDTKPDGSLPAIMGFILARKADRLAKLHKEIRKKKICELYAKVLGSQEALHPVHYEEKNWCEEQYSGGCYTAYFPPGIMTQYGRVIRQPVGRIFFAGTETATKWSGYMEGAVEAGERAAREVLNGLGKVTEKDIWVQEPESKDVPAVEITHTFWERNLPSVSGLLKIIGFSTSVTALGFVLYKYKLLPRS

[7] = molecular target: Kappa-type opioid receptor (Homo sapiens, UniProt P41145)
Sequence of Kappa-type opioid receptor (P41145 whole entry): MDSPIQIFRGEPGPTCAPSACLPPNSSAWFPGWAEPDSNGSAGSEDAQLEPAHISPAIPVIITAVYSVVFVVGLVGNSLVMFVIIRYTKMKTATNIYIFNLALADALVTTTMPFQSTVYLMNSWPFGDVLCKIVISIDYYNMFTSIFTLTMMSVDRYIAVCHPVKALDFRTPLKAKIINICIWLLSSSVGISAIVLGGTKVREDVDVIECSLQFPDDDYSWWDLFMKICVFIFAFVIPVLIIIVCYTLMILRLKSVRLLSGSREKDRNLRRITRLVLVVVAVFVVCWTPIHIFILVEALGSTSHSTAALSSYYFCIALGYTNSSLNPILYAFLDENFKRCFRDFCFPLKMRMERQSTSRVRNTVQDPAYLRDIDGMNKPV

[8] = molecular target: Beta-2 adrenergic receptor (Homo sapiens, UniProt P07550)
Sequence of Beta-2 adrenergic receptor (P07550 whole entry): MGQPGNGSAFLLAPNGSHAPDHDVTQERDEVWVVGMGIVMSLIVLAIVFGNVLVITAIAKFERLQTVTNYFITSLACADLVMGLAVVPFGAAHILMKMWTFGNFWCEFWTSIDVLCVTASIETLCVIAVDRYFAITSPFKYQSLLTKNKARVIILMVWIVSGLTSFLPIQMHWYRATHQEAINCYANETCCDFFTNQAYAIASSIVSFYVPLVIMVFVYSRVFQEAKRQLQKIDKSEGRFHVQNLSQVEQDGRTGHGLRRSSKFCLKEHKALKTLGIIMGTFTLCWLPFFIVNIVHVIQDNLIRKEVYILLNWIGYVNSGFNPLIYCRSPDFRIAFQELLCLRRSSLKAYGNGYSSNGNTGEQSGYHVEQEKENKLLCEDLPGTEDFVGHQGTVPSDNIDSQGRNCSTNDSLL

[9] = molecular target: T5, 5-hydroxytryptamine receptor 1A (Homo sapiens, UniProt P08908); assay type: functional, cell-based
T5 sequence (P08908 whole entry): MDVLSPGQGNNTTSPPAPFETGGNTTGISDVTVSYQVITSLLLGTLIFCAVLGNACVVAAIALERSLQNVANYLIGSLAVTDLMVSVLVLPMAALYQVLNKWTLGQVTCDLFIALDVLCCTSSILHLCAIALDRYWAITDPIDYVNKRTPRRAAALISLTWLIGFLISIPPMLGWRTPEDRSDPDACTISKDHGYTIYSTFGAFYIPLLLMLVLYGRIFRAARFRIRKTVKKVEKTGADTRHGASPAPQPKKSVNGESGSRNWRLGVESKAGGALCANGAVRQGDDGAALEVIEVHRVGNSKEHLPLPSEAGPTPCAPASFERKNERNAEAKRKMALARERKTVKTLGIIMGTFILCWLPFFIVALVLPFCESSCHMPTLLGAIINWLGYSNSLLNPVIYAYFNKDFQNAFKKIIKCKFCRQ
Further: assay procedure not described here.

Sequence of Delta-type opioid receptor (P41143 whole entry): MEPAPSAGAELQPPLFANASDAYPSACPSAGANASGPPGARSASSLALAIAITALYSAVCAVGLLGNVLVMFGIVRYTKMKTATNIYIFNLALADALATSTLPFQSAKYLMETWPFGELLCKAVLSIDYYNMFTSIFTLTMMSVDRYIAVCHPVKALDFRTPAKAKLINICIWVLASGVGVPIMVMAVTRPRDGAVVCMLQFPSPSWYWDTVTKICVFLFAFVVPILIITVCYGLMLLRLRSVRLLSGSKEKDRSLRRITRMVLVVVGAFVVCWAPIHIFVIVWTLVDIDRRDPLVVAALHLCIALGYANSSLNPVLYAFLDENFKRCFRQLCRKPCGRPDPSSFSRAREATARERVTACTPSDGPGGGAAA
Sequence of Gamma-aminobutyric acid receptor subunit alpha-1 (P62813 whole entry): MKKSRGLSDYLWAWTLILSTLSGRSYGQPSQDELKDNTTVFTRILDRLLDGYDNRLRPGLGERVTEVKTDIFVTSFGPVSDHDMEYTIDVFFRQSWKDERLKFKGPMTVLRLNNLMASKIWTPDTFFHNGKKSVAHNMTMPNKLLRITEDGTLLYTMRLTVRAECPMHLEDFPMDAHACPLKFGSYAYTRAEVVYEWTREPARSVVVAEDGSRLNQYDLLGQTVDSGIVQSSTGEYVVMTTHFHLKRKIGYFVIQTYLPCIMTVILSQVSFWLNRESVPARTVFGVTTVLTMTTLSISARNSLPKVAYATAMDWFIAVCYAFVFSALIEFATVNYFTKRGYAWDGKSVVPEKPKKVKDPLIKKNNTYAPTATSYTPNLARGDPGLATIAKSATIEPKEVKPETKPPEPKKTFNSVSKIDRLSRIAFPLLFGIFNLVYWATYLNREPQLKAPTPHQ
Sequence of D(3) dopamine receptor (P35462 whole entry): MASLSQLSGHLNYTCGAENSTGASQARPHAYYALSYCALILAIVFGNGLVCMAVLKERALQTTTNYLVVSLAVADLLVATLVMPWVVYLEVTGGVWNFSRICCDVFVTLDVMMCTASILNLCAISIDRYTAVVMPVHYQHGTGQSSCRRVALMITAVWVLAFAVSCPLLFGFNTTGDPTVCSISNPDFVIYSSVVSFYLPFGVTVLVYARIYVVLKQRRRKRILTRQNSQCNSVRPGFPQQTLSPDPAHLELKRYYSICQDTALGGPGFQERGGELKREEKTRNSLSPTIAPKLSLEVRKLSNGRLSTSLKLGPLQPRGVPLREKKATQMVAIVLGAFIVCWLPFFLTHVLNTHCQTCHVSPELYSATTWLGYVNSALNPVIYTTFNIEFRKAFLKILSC

| Compound | AC50 [1] [µM] | AC50 (D(3) dopamine receptor) [µM] | AC50 [2] [µM] | AC50 [3] [µM] | AC50 [4] [µM] | AC50 [5] [µM] | AC50 (Mu-type opioid receptor) [µM] | AC50 [6] [µM] | AC50 [7] [µM] | AC50 [8] [µM] | AC50 [9] [µM] |
| --- | --- | --- | --- | --- | --- | --- | --- | --- | --- | --- | --- |
| CC(C)(C)NCC(O)COc1cccc2c1CC(O)C(O)C2 (stereo unspecified) [NADOLOL] | > 30 | > 30 | > 10 | > 10 | > 10 | > 30 | > 30 | > 10 | > 10 | – | – |
| Cc1cnc(Nc2ccc(OCCN3CCCC3)cc2)nc1Nc1cccc(S(=O)(=O)NC(C)(C)C)c1 [FEDRATINIB] | > 30 | 5.3 | > 10 | > 30 | 7.4 | – | 17 | > 10 | 15.4 | > 10 | – |
| CCC1(C)CC(=O)NC1=O (stereo unspecified) [ETHOSUXIMIDE] | > 30 | > 30 | > 10 | > 10 | > 10 | – | > 30 | > 10 | > 10 | > 10 | > 10 |
| C[C@@H](Cc1ccccc1)N(C)Cc1ccccc1 [BENZPHETAMINE] | > 30 | > 30 | > 10 | > 10 | 0.68 | > 30 | > 30 | > 10 | 1.97 | > 10 | – |
| COc1ccc(-n2nc(C(N)=O)c3c2C(=O)N(c2ccc(N4CCCCC4=O)cc2)CC3)cc1 [APIXABAN] | > 30 | > 30 | > 30 | > 30 | > 30 | > 30 | > 30 | > 30 | > 30 | – | – |
| Nc1cc(N2CCCCC2)nc(N)[n+]1[O-] [MINOXIDIL] | > 30 | > 30 | > 10 | – | > 10 | > 30 | > 30 | > 10 | > 10 | > 30 | – |
| NS(=O)(=O)c1ccc(N2CCCCS2(=O)=O)cc1 | > 30 | > 30 | > 30 | > 30 | > 30 | > 30 | – | > 30 | 21 | > 30 | > 30 |
| CC(C)CN(C[C@@H](O)[C@H](Cc1ccccc1)NC(=O)O[C@H]1CCOC1)S(=O)(=O)c1ccc(N)cc1 | > 30 | > 30 | > 10 | > 30 | > 10 | > 30 | > 30 | > 10 | > 10 | > 10 | – |
| CC1Cc2ccccc2N1NC(=O)c1ccc(Cl)c(S(N)(=O)=O)c1 (stereo unspecified) [INDAPAMIDE] | > 30 | > 30 | > 10 | > 30 | > 10 | > 30 | > 30 | > 10 | > 10 | > 10 | – |

From ChEMBL document CHEMBL5291721, “A preclinical secondary pharmacology resource illuminates target-adverse drug reaction associations of marketed drugs” (Nat Commun, 2023)
